≈ marks a conversion by molar mass, not a printed value.
Assays:
[1] = test system: Mycobacteroides abscessus; assay: Antimycobacterial activity against Mycobacterium abscessus […] assessed as inhibition of bacterial growth measured after 5 days by visual analysis; assay type: functional; settings: 120 h, time 5 day
[2] = test system: Mycobacterium tuberculosis; assay: Antimycobacterial activity against Mycobacterium tuberculosis H37Rv mc2 6206 assessed as inhibition of bacterial growth measured after 7 days by visual analysis; assay type: functional; settings: H37Rv mc2 6206, 168 h, time 7 day
[3] = Permeability of the compound by PAMPA method; assay type: ADME
[4] = Plasma protein binding in human at 10 ug/ml incubated for 4 hrs under shaking condition by LC/MS/MS analysis; assay type: ADME, cell-free; settings: at 10 µg/mL, read-out: PPB (converted)
[5] = Kinetic solubility of compound at pH 7.4 incubated for 6 hrs by LC-MS/MS analysis; assay type: physicochemical; settings: buffer, read-out: Kinetic_solubility

Structure (SMILES) | MIC [1] [µg/mL] | MIC [2] [µg/mL] | permeability [3] | fraction unbound at 4 h, 10 ug/ml [4] | solubility kinetic at 6 h [5] [µg/mL]
O=C(CNc1ccc(Cl)cc1)NC1CCCCCCC1 | 32 (≈ 109 µM) | 64 (≈ 217 µM) |  |  | 
Cc1ccc(NCC(=O)N[C@H]2CC[C@H](C)CC2)cc1 | > 64 | 64 (≈ 246 µM) |  |  | 
COc1ccc(NCC(=O)NC2C3CC4CC(C3)CC2C4)cc1 (stereo unspecified) | 32 (≈ 102 µM) | 32 (≈ 102 µM) |  |  | 
Cc1ccc(NCC(=O)N[C@@H]2C[C@@H]3C[C@H]([C@H]2C)C3(C)C)cc1 | 8 (≈ 26.6 µM) | 16 (≈ 53.3 µM) |  |  | 
C[C@@H]1[C@H]2C[C@@H](C[C@H]1NC(=O)CNc1ccc(C(F)(F)F)cc1)C2(C)C | 32 (≈ 90.3 µM) | 16 (≈ 45.1 µM) |  |  | 
O=C(CNc1ccc(OC(F)(F)F)cc1)NC1CCCCCCC1 | 8 (≈ 23.2 µM) | 32 (≈ 92.9 µM) |  |  | 
O=C(CNc1ccccc1)NC12CC3CC(CC(C3)C1)C2 | 16 (≈ 56.3 µM) | 32 (≈ 113 µM) |  |  | 
COc1ccc(NCC(=O)NC2CCCCCCC2)cc1 | > 64 | 64 (≈ 220 µM) |  |  | 
C[C@H]1CC[C@H](NC(=O)CNc2ccccc2)CC1 | > 64 | 64 (≈ 260 µM) |  |  | 
O=C(CNc1ccccc1)NC1CCCCCC1 | > 64 | 64 (≈ 260 µM) |  |  | 
O=C(CNc1ccccc1Cl)NC12CC3CC(CC(C3)C1)C2 | 16 (≈ 50.2 µM) | 8 (≈ 25.1 µM) |  |  | 
O=C(CNc1ccc(Br)cc1)NC1C2CC3CC(C2)CC1C3 (stereo unspecified) | 4 (≈ 11 µM) | 4 (≈ 11 µM) |  |  | 
Cc1ccc(NCC(=O)NC2C3CC4CC(C3)CC2C4)cc1 (stereo unspecified) | 16 (≈ 53.6 µM) | 4 (≈ 13.4 µM) |  |  | 
Cc1ccc(NCC(=O)NC23CC4CC(CC(C4)C2)C3)cc1 | 32 (≈ 107 µM) | 32 (≈ 107 µM) |  |  | 
O=C(CNc1ccc(Cl)cc1)NC12CC3CC(CC(C3)C1)C2 | 4 (≈ 12.5 µM) | 16 (≈ 50.2 µM) |  |  | 
CNC(=C[N+](=O)[O-])NCCSCc1ccc(CN(C)C)o1 [RANITIDINE] |  |  | 3.47 10^-6 cm/s | 0.793 | 77.5 (≈ 246 µM)
COc1ccc(NCC(=O)NC23CC4CC(CC(C4)C2)C3)cc1 | 32 (≈ 102 µM) | 32 (≈ 102 µM) |  |  | 
O=C(CNc1ccccc1)NC1C2CC3CC(C2)CC1C3 (stereo unspecified) | > 64 | 16 (≈ 56.3 µM) |  |  | 
COc1ccc(NCC(=O)N[C@@H]2C[C@@H]3C[C@H]([C@H]2C)C3(C)C)cc1 | 32 (≈ 101 µM) | 64 (≈ 202 µM) |  |  | 
O=C(CNc1ccccc1OC(F)(F)F)NC12CC3CC(CC(C3)C1)C2 | > 64 | 1 (≈ 2.71 µM) |  |  | 
O=C(CNc1ccc(Cl)cc1)NC1C2CC3CC(C2)CC1C3 (stereo unspecified) | > 64 | 64 (≈ 201 µM) |  |  | 
C[C@@H]1[C@H]2C[C@@H](C[C@H]1NC(=O)CNc1ccc(Cl)cc1)C2(C)C | 4 (≈ 12.5 µM) | 16 (≈ 49.9 µM) |  |  | 
C[C@H]1CC[C@H](NC(=O)CNc2ccc(Cl)cc2)CC1 | > 64 | 64 (≈ 228 µM) |  |  | 
Cc1ccc(NCC(=O)NC2CCCCCCC2)cc1 | > 64 | 32 (≈ 117 µM) |  |  | 
O=C(CNc1ccc(C(F)(F)F)cc1)NC1CCCCCCC1 | 64 (≈ 195 µM) | 32 (≈ 97.4 µM) |  |  | 
O=C(CNc1ccccc1)NC1CCCCCCC1 | 8 (≈ 30.7 µM) | 8 (≈ 30.7 µM) |  |  | 
O=C(CNc1ccc(C(F)(F)F)cc1)NC12CC3CC(CC(C3)C1)C2 | 8 (≈ 22.7 µM) | 8 (≈ 22.7 µM) |  |  | 
C[C@@H]1[C@H]2C[C@@H](C[C@H]1NC(=O)CNc1ccc(Br)cc1)C2(C)C | 4 (≈ 10.9 µM) | 16 (≈ 43.8 µM) |  |  | 
O=C(CNc1ccccc1Br)NC12CC3CC(CC(C3)C1)C2 | 8 (≈ 22 µM) | 8 (≈ 22 µM) |  |  | 
C[C@@H]1[C@H]2C[C@@H](C[C@H]1NC(=O)CNc1ccccc1)C2(C)C | > 64 | 64 (≈ 223 µM) |  |  | 
